Test results taken from US7358233B2, “Tetronic acid derivative” (Toudai TLO, Ltd, priority 2001, dated 2008).

Experiments:
HT-29 cells [1] = assay: Antitumor effect against HT-29 cells transplanted into nude mice; assay type: in vivo; conditions: HT-29 tumor grown to 100 mm^3 in nude mice; VST through the tail vein (FIG. 15)
Method: The antitumor effect of VST at the animal level was examined. Specifically, HT-29 cells were transplanted into nude mice and tumor was grown to 100 mm^3. Subsequently, each concentration of VST was administered through the tail vein, progress of cancer was followed each day thereafter, and the tumor was enucleated to compare its size. […] Furthermore, the combined effect with CDDP (cisplatin) was examined.

HT-29 cells [2] = assay: Combined use of VST and cisplatin, colony-forming ability of HT-29 cells; assay type: cell-based; conditions: glucose starvation condition
Excerpt: Enhancement of endoplasmic reticulum stress response promotes survival of cells under undernutritive conditions, and at the same time allows cells to acquire resistance to antitumor agents. Therefore, the inventors intended to examine the effect of VST on known antitumor agents. […] Therefore, the combined effect with other pharmaceutical agents could not be duly examined. Thus, cisplatin generally used for solid cancer treatment was used to examine the combined effect, due to its activity on cancer cells that is maintained even under low glucose conditions. Specifically, HT-29 cells were cultured by the above-mentioned method, pretreated for 30 min with VST, and then cultured for 18 hours. The cells were then treated for 4 hours with each concentration of cisplatin, and a week later their colony-forming ability was examined.

## N.N.[Cl][Pt][Cl] [cisplatin, reference compound]
HT-29 cells [1]
  antitumor effect (tumor size): sufficient
HT-29 cells [2]
  activity on colony-forming ability under glucose starvation condition: enhance the activity
